From patent US20260015357A1, “MODULATORS OF NLRP3 INFLAMMASOME AND RELATED PRODUCTS AND METHODS” (Neumora Therapeutics, Inc., priority 2022, published 2026)
pIC50: −log10 of the molar value.

Key:
[1] = biological target: T1, NLRP3 inflammasome (Homo sapiens, UniProt Q96P20); assay: NLRP3 inflammasome activation in LPS-primed, nigericin-activated THP1 macrophages, IL-1β AlphaLISA; type: cell-based; details: PMA-differentiated, 1 hr compound, Nigericin 6.7 uM 3 hrs, IL-1β in supernatant
T1 construct: host or cells: THP1 human acute monocytic leukemia cells, PMA-differentiated, LPS-primed
Protocol: (§1) NLRP3 Inflammasome Activation and Cell Viability Assessment in THP1 Macrophages
(§2) THP1—Human acute monocytic leukemia cells were cultured (ATCC, cat #TIB-202) in Gibco RPMI-1640 medium (ThermoFisher cat #72400054) supplemented with 10% Heat Inactivated FBS at density between 3-8×10^5 viable cells/mi. The cells were then subcultured when the cell concentration reached 8×10^5 cells/mL (every 2-3 days).
(§3) The parameter wells were filled with 50 ul PBS and incubated at 37° C., 5% CO2 for 48 hrs.
(§4) After 48 hrs incubation, the PMA containing media was removed, and changed for 40 ul/well of fresh DMEM, 10% FBS, 1× GlutaMax and incubated at 37° C., 5% CO2 for 24 hrs.
(§5) The following day the cells were primed with LPS (E. coli) (Sigma, cat #L3129) […] in DMEM, 10% FBS, 1× GlutaMax for 3 hrs at 37° C., 5% CO2.
(§6) Following the LPS priming step, the cells were treated with compounds at 10 uM top final concentration, 1:4 dilution, 8 times: (10 uM, 2.5 uM, 0.625 uM, 0.156 uM, 0.039 uM, 0.0097 uM, 0.0024 uM, 0.0006 uM). DMSO was used as a vehicle control, and MCC950 (InvivoGen, cat #inh-mcc) was used at 1 uM as a positive control, and incubated for 1 hrs at 37° C., 5% CO2.
(§7) Following the 1 hr compound incubation, the NLRP3 inflammasome activation step was conducted by treating cells with Nigericin (InvivoGen, cat #tlrl-nig) at 6.7 uM final concentration for 3 hrs at 37° C., 5% CO2.
(§8) Thereafter, 30 ul samples of cells' supernatants were collected for cytokine analysis which was conducted on Hu IL-1β AlphaLISA (Perkin Elmer, cat #AL220C) and Hu IL-6 AlphaLISA (Perkin Elmer, cat #AL220C). The cells' viability was assessed by performing CellTiter-Glo Luminescent Assay (Promega, cat #G7572) according to the manufacturer's protocol.

[2] = tested on: IL-6; assay: IL-6 in supernatants of LPS-primed, nigericin-treated THP1 macrophages, Hu IL-6 AlphaLISA; type: cell-based; details: Homo sapiens, THP-1, PMA-differentiated, 1 hr compound, Nigericin 6.7 uM 3 hrs, IL-6 in supernatant
Protocol: as §1, §2, §3, §4, §5, §6, §7, §8

T1 sequence (Q96P20 whole entry): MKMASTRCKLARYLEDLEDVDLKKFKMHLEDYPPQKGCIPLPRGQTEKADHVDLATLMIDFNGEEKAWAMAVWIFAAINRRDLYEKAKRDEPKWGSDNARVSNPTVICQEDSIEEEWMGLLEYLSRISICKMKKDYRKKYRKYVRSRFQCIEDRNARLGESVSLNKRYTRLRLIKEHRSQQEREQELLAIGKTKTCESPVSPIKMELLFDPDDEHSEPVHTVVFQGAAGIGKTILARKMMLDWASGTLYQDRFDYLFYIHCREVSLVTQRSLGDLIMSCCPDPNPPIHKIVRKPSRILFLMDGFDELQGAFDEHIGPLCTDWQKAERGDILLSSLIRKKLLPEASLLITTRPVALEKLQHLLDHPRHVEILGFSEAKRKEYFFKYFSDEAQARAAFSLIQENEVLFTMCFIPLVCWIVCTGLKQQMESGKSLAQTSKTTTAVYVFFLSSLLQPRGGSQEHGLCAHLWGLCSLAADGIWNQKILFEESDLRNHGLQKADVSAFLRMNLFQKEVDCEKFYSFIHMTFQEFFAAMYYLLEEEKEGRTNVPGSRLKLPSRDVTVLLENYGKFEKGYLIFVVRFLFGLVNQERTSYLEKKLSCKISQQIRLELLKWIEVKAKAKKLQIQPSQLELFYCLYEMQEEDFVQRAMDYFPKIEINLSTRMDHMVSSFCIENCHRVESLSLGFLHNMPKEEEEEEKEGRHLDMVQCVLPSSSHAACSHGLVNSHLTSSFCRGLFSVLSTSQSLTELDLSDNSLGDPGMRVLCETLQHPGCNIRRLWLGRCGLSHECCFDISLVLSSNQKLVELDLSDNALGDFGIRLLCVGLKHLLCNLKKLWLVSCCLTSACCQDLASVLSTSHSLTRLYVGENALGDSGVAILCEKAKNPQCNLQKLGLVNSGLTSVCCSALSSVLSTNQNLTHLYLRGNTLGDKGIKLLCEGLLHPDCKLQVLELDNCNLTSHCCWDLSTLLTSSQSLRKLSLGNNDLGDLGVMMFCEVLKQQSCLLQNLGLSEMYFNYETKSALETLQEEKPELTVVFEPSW

Structure (SMILES) | pIC50 [1] | pIC50 [2]
Cn1ccc2c(-c3ccc(C#N)cc3O)nnc(N[C@H]3CN(CCF)CC(F)(F)C3)c21 [Compound 149] | ≤ 5.00 | ≤ 5.00
N#Cc1ccc(-c2nnc(N[C@@H]3CCCN(CCO)C3)c3sncc23)c(O)c1 [Compound 151] | > 8.00 | ≤ 5.00
Cn1ccc2c(-c3ccc(C#N)cc3O)nnc(N[C@@H]3CCCN(CC(C)(C)O)C3)c21 [Compound 152] | 7.00 to 8.00 | ≤ 5.00
COCCN1CCC[C@@H](Nc2nnc(-c3ccc(C#N)cc3O)c3ccn(C)c23)C1 [Compound 153] | 7.00 to 8.00 | ≤ 5.00
COCCN1CCC[C@@H](Nc2nnc(-c3ccc(C#N)cc3O)c3cnsc23)C1 [Compound 154] | 7.00 to 8.00 | ≤ 5.00
CNCCN1CCC[C@@H](Nc2nnc(-c3ccc(C#N)cc3O)c3ccn(C)c23)C1 [Compound 155] | 6.30 to 7.00 | ≤ 5.00
CN(C)CCN1CCC[C@@H](Nc2nnc(-c3ccc(C#N)cc3O)c3ccn(C)c23)C1 [Compound 156] | 7.00 to 8.00 | ≤ 5.00
CN1CCC[C@@H](Nc2nnc(-c3ccc(C#N)cc3O)c3c(Cl)cn(C)c23)C1 [Compound 157] | 6.30 to 7.00 | ≤ 5.00
Cn1ccc2c(-c3ccc(C#N)cc3O)nnc(N[C@@H]3CCCNC3)c21 [Compound 158] | 7.00 to 8.00 | 5.00 to 5.30
Cn1ccc2c(-c3ccc(C(F)(F)F)cc3)nnc(N[C@@H]3CCCN(S(C)(=O)=O)C3)c21 [Compound 159] | 5.00 to 6.00 | ≤ 5.00
Cn1ccc2c(-c3ccc(C#N)cc3O)nnc(N[C@@H]3CCCN(C4COC4)C3)c21 [Compound 160] | 5.00 to 6.00 | ≤ 5.00
Cn1ccc2c(-c3ccc(C#N)cc3O)nnc(N[C@@H]3CCCN(c4ccccc4)C3)c21 [Compound 161] | ≤ 5.00 | ≤ 5.00
Cn1ccc2c(-c3ccc(C#N)cc3O)nnc(N[C@@H]3CCCN(c4ccncc4)C3)c21 [Compound 162] | 5.00 to 6.00 | ≤ 5.00
Cn1ccc2c(-c3ccc(C#N)cc3O)nnc(N[C@@H]3CCCN(c4cccnc4)C3)c21 [Compound 163] | ≤ 5.00 | ≤ 5.00
Cn1ccc2c(-c3ccc(C#N)cc3O)nnc(N[C@@H]3CCCN(CCN)C3)c21 [Compound 164] | 6.30 to 7.00 | ≤ 5.00
CN1CCC[C@@H](Nc2nnc(-c3ncc(C#N)cc3O)c3cc(Cl)n(C)c23)C1 [Compound 165] | > 8.00 | ≤ 5.00
CN1CCC[C@@H](Nc2nnc(-c3ncc(C(F)(F)F)cc3O)c3cnn(C)c23)C1 [Compound 166] | 7.00 to 8.00 | ≤ 5.00
COc1cc(C)ccc1-c1nnc(N[C@@H]2CCCN(C)C2)c2c1cnn2C [Compound 167] | 5.00 to 6.00 | ≤ 5.00
CN1CCC[C@@H](Nc2nnc(-c3ncc(C(F)(F)F)cc3O)c3ccn(C)c23)C1 [Compound 168] | 5.00 to 6.00 | ≤ 5.00
